Assays:
[1] = molecular target: T1, human Hsp90α N-terminal domain (Homo sapiens, UniProt P07900); test: Isothermal titration calorimetry (ITC) binding to human Hsp90; settings: 25 mM Tris, 100 mM NaCl, 1 mM MgCl2, 1 mM TCEP, 5% DMSO, pH 7.4
T1 construct: Cloning, expression, and purification of the Human Hsp90a N-terminal domain were performed according to published methods; made in house
Protocol: The ability of the compounds of the invention to bind to human Hsp90 proteins was determined using isothermal titration calorimetry.
Isothermal titration calorimetry (ITC) experiments were performed with a VP-ITC titration calorimeter (Microcal Inc., Northampton, Mass., USA). […] All solutions were filtered and degassed prior to a titration being carried out. The enthalpy change resulting from each injection of ligand was obtained through integration of the calorimetric signal. Data were analysed using Origin 7.0 (Microcal Software Inc., Northampton, Mass.). Heats of dilution were estimated using the final injections of each individual titration and subtracted before data fitting. Different ITC experimental formats were employed in order to obtain compound dissociation constants (Kd's) over a wide range of affinities. […] In this type of experiment the stoichiometry parameter (N) was locked at 1 for data fitting.

[2] = Solid-state stability of crystalline L-lactate salt forms (storage in air / 40° C. and 75% RH, XRPD); assay type: physicochemical; settings: solid L-lactate 1:1 salt of Compound (VIII); in air, or at 40° C. and 75% RH
Text: Samples for X-ray powder diffraction (XRPD) data collection were gently ground by marble mortar and loaded into a crystallographic capillary (from Hampton Research, Quartz or Glass Type 10, 0.4 or 0.7 mm diameter). Diffraction patterns were collected at room temperature using CuKα radiation (λ=1.5418 Å) from a Rigaku rotating anode RU3HR, Osmic blue confocal optics, ¼ c goniometer and a Rigaku HTC image plate detector. 2D images were collected while spinning φ axis with a detector to crystal distance of 250 mm. Data collection was controlled by CrystalClear software and 2D images were converted to 1D plot (2θ vs. Intensity) by Datasqueeze (intensity averaged over the azimuthal angle 0≦χ≦360° for 2θ range 3-30° in 0.02° steps). In house program AstexXRPD was used for manipulation and visualisation of 1D XRPD patterns.

Compound | Kd [1] [nM] | stability of crystalline form [2]
CC(C)c1cc(C(=O)N2Cc3ccc(CN4CCN(C)CC4)cc3C2)c(O)cc1O [Example 55, (2,4-dihydroxy-5-isopropyl-phenyl)-[5-(4-methyl-piperazin-1-ylmethyl)-1,3-dihydro-isoindol-2-yl]-methanone] | < 100 | –
CC(C)c1cc(C(=O)N2Cc3ccc(CN4CCN(C)CC4)cc3C2)c(O)cc1O.C[C@H](O)C(=O)O [Form FL1, (2,4-dihydroxy-5-isopropyl-phenyl)-[5-(4-methyl-piperazin-1-ylmethyl)-1,3-dihydro-isoindol-2-yl]-methanone L-lactate salt] | – | stable in air and at 40 °C and 75% RH for at least one month
CC(C)c1cc(C(=O)N2Cc3ccc(CN4CCN(C)CC4)cc3C2)c(O)cc1O.C[C@H](O)C(=O)O [Form FL3, (2,4-dihydroxy-5-isopropyl-phenyl)-[5-(4-methyl-piperazin-1-ylmethyl)-1,3-dihydro-isoindol-2-yl]-methanone L-lactate salt] | – | transforms in air into form FL1
CC(C)c1cc(C(=O)N2Cc3ccc(CN4CCN(C)CC4)cc3C2)c(O)cc1O.C[C@H](O)C(=O)O [form FL2, (2,4-dihydroxy-5-isopropyl-phenyl)-[5-(4-methyl-piperazin-1-ylmethyl)-1,3-dihydro-isoindol-2-yl]-methanone L-lactate salt] | – | stable in air

Source: patent US9730912B2, “Pharmaceutical compounds” (ASTEX THERAPEUTICS LIMITED, priority 2006, dated 2017)
